Source: US20240251792A1, “WEED CONTROL METHOD” (SYNGENTA CROP PROTECTION AG, priority 2021, published 2024)
Where two headings read alike, the source gives them in different places.

What was measured:
Format in all cases: in vivo
LOLPE [1] = assay: Biological efficacy, post-emergence glasshouse test (Table 2); conditions: 1000 g/ha, after 12 days
Procedure: (§1) Seeds of a variety of test species were shown in unsterilised compost in small pots. After cultivation for one day (pre-emergence) or seven days (post-emergence) in controlled conditions in the glasshouse (at 24/16° C., day/night; 14 hours light; 65% humidity) the plants were sprayed with 1 mg of the active ingredient, formulated in 466 μl of a acetone/water/Tween 20 (49.75:49.75:0.5) solution, which is equivalent to 1000 g/ha. Once the foliage was dry, the pots were kept in the glasshouse (at 24/16° C., day/night; 14 hours light; 65% humidity), and were watered twice daily. After 12 days the test was evaluated and scored (100=total damage to plant, 0=no damage to plant).

STEME [2] = assay: as above; conditions: 1000 g/ha, after 12 days
Procedure: as §1

AMARE [3] = assay: as above; conditions: 1000 g/ha, after 12 days
Procedure: as §1

DIGSA [4] = assay: as above; conditions: 1000 g/ha, after 12 days
Procedure: as §1

LOLPE [5] = assay: Biological efficacy, pre-emergence glasshouse test (Table 2); conditions: 1000 g/ha, after 12 days
Procedure: as §1

STEME [6] = assay: as above; conditions: 1000 g/ha, after 12 days
Procedure: as §1

AMARE [7] = assay: as above; conditions: 1000 g/ha, after 12 days
Procedure: as §1

DIGSA [8] = assay: as above; conditions: 1000 g/ha, after 12 days
Procedure: as §1

STEME [9] = assay: Pre-emergence biological efficacy (Table 3); conditions: 312 h, after 13 days, read-out: evaluation (100=total damage to plant; 0=no damage to plant)
In short: (§2)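 Seeds were sown in standard soil in pots, kept one day in a glasshouse (24/19 °C day/night, 16 h light), then sprayed with an aqueous dilution in 0.2% Genapol X080 of a 50 g/l stock in acetone/AMA emulsifier mix. Damage was scored visually after 13 days (0 = none, 100 = total).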

ECHCG = assay: Pre-emergence biological efficacy (Table 3); conditions: Echinochloa crus-galli, 312 h, 1000 g/ha, after 13 days, read-out: evaluation (100=total damage to plant; 0=no damage to plant)
In short: as §2

IPOHE = assay: Pre-emergence biological efficacy (Table 3); conditions: Ipomoea hederacea, 312 h, 1000 g/ha, after 13 days, read-out: evaluation (100=total damage to plant; 0=no damage to plant)
In short: as §2

AMARE [10] = assay: Pre-emergence biological efficacy (Table 3); conditions: Amaranthus retroflexus, 312 h, 1000 g/ha, after 13 days, read-out: evaluation (100=total damage to plant; 0=no damage to plant)
In short: as §2

ABUTH = assay: Pre-emergence biological efficacy (Table 3); conditions: Abutilon theophrasti, 312 h, after 13 days, read-out: evaluation (100=total damage to plant; 0=no damage to plant)
In short: as §2

ZEAMX = assay: Pre-emergence biological efficacy (Table 3); conditions: 312 h, 1000 g/ha, after 13 days, read-out: evaluation (100=total damage to plant; 0=no damage to plant)
In short: as §2

weeds and/or crops = assay: Post-emergence biological efficacy (Table 4); conditions: 312 h, 1000 g/ha, evaluated after 13 days
In short: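 Weeds and crops were grown 14 days in a glasshouse, then sprayed post-emergence with compound formulated in acetone/F50 and diluted in 0.2% Genapol X080 to the final dose. Damage was scored after 13 days on a 0–100 scale, where 100 is total damage.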

[11] = STEME, read-out: damage to plant STEME (100=total damage; 0=no damage)
[12] = ZEAMX, read-out: damage to plant ZEAMX (100=total damage; 0=no damage)
[13] = Amaranthus retroflexus, AMARE, read-out: damage to plant AMARE (100=total damage; 0=no damage)
[14] = Echinochloa crus-galli, ECHCG, read-out: damage to plant ECHCG (100=total damage; 0=no damage)
[15] = Ipomoea hederacea, IPOHE, read-out: damage to plant IPOHE (100=total damage; 0=no damage)
[16] = Abutilon theophrasti, ABUTH, read-out: damage to plant ABUTH (100=total damage; 0=no damage)

Row | SMILES | score (100=total damage to plant, 0=no damage to plant) (LOLPE [1]) | score (100=total damage to plant, 0=no damage to plant) (STEME [2]) | score (100=total damage to plant, 0=no damage to plant) (AMARE [3]) | score (100=total damage to plant, 0=no damage to plant) (DIGSA [4]) | score (100=total damage to plant, 0=no damage to plant) (LOLPE [5]) | score (100=total damage to plant, 0=no damage to plant) (STEME [6]) | score (100=total damage to plant, 0=no damage to plant) (AMARE [7]) | score (100=total damage to plant, 0=no damage to plant) (DIGSA [8]) | pest or weed control at 1000 g/ha (STEME [9]) [%] | pest or weed control at 1000 g/ha (ECHCG) [%] | pest or weed control at 1000 g/ha (IPOHE) [%] | pest or weed control at 1000 g/ha (AMARE [10]) [%] | pest or weed control at 1000 g/ha (ABUTH) [%] | plant injury at 1000 g/ha (ZEAMX) [%] | pest or weed control at 1000 g/ha (weeds and/or crops; [11]) [%] | pest or weed control at 1000 g/ha (weeds and/or crops; [12]) [%] | pest or weed control at 1000 g/ha (weeds and/or crops; [13]) [%] | pest or weed control at 1000 g/ha (weeds and/or crops; [14]) [%] | pest or weed control at 1000 g/ha (weeds and/or crops; [15]) [%] | pest or weed control at 1000 g/ha (weeds and/or crops; [16]) [%]
1 | CC(C)(C)c1ccc(C(F)(F)C(=O)O)cc1 [Compound 1-1] | 0 | 0 | 40 | 0 | 0 | 20 | 0 | 0 | – | – | – | – | – | – | – | – | – | – | – | –
2 | O=C(O)C(F)(F)c1ccc(OC(F)F)cc1F [Compound 1-32] | 0 | 40 | 30 | 0 | 0 | 0 | 0 | 0 | – | – | – | – | – | – | – | – | – | – | – | –
3 | N#Cc1ccccc1C(F)(F)C(=O)[O-].[Li+] [Compound 5-255] | 0 | 70 | 70 | 0 | 0 | – | 20 | 0 | – | – | – | – | – | – | – | – | – | – | – | –
4 | COc1cccc(C(F)(F)C(=O)O)c1 [Compound 1-6] | 0 | 20 | 80 | 0 | 0 | 0 | – | 0 | – | – | – | – | – | – | – | – | – | – | – | –
5 | O=C(O)C(F)(F)c1cccc2nccnc12 [Compound 1-409, 2,2-Difluoro-2-(quinoxalin-5-yl)acetic acid] | – | – | – | – | – | – | – | – | 30 | 20 | 70 | 50 | 70 | 0 | 40 | 10 | 70 | 10 | 80 | –
6 | CCOC(=O)C(F)(F)c1cccc2ccccc12 [Compound 3-397, Ethyl 2,2-difluoro-2-(1-naphthyl)acetate] | 0 | 70 | 40 | 0 | 0 | – | 0 | 0 | 40 | 0 | 0 | 10 | 50 | 20 | 100 | 0 | 10 | 0 | 60 | 90
7 | Nc1cc(Cl)cc(C(F)(F)C(=O)O)c1Cl [Compound 1-235, 2-(3-Amino-2,5-dichlorophenyl)-2,2-difluoroacetic acid] | – | – | – | – | – | – | – | – | 30 | 10 | 20 | 40 | 30 | 0 | 50 | 20 | 70 | 20 | 30 | –
8 | COc1cccc(C(F)(F)C(=O)O)c1Cl [Compound 1-209, 2-(2-Chloro-3-methoxyphenyl)-2,2-difluoroacetic acid] | – | – | – | – | – | – | – | – | 60 | 0 | 80 | 70 | 60 | 0 | 90 | 10 | 80 | 10 | 80 | –
9 | O=C(O)C(F)(F)c1c(Cl)ccc2ccccc12 [Compound 1-401, 2-(2-chloronaphthalen-1-yl)-2,2-difluoroacetic acid] | – | – | – | – | – | – | – | – | 80 | 30 | 50 | 80 | 60 | 0 | 80 | 10 | 70 | – | 80 | 80
10 | Cc1ccc2onc(C)c2c1C(F)(F)C(=O)O [Compound 1-396, 2-(3,5-dimethylbenzo[d]isoxazol-4-yl)-2,2-difluoroacetic acid] | – | – | – | – | – | – | – | – | 0 | 0 | 0 | 0 | 0 | 30 | 0 | 10 | 10 | 0 | 60 | –
11 | O=C(O)C(F)(F)c1cccc([N+](=O)[O-])c1Cl [Compound 7-237, Ammonium 2-(2-chloro-3-nitro-phenyl)-2,2-difluoro-acetate] | – | – | – | – | – | – | – | – | 0 | 0 | 50 | 0 | 10 | 0 | 0 | 0 | 50 | 10 | 60 | 0
12 | CSc1cccc(C(F)(F)C(=O)O)c1Cl [Compound 1-220, 2-(2-Chloro-3-methylsulfanyl-phenyl)-2,2-difluoro-acetic acid] | – | – | – | – | – | – | – | – | 50 | 0 | 70 | 50 | 80 | 10 | 70 | 10 | 70 | 0 | 70 | –
13 | Nc1c(Cl)cccc1C(F)(F)C(=O)O [Compound 1-252, 2-(2-Amino-3-chloro-phenyl)-2,2-difluoro-acetic acid] | – | – | – | – | – | – | – | – | 10 | 0 | 50 | 40 | 90 | 0 | 90 | 10 | 20 | 0 | 70 | 80
